pIC50: −log10 of the molar value. Read-outs that look alike come from different tables or passages of the source. Square brackets hold non-standard residues; d marks the D form. Peptide text beside a SMILES is read from it.
Experiments:
[1] = amide bond, DMF
[2] = target: dog platelets (Canis lupus familiaris, UniProt A0A8I3N5G5+A0A8I3PMU9); conditions: read-out: IC50 for the aggregation of dog platelets stimulated by ADP; agonist ADP; peptides added 3 min prior to the agonist; light transmittance 5 min after agonist
Procedure: Inhibition of Platelet Aggregation
Blood was collected (citrated to prevent coagulation) from, naive, adult mongrel dogs. Platelet rich plasma, PRP, was prepared by centrifugation at 150×g for 10 min at room temperature. Washed platelets were prepared by centrifuging PRP at 800×g for 10 min. The cell pellet thus obtained was washed twice in Tyrode's buffer (pH 6.5) without Ca^++ and resuspended in Tyrode's buffer (pH 7.4) containing 1.8 mM Ca^++ at […]. Peptides were added 3 min prior to the agonist in all assays of platelet aggregation. Final agonist concentrations were 0.1 unit/ml thrombin and […] (Sigma). Aggregation was monitored in a Chrono-Log Lumi-Aggregometer. Light transmittance 5 min after addition of the agonist was used to calculate percent aggregation according to the formula % aggregation=[(90-CR)[…](90-10)]×100, where CR is the chart reading, 90 is the baseline, and 10 is the PRP blank reading. IC50 's were determined by plotting [% inhibition of aggregation] vs. [concentration of peptide]. Peptides were assayed at […] and diluted sequentially by a factor of 2 to establish a suitable dose response curve.

[3] = the molecule shown is the open-chain precursor, 20-membered ring, BOP/DIEA, resin, with chain assembly

Sequence of dog platelets (A0A8I3N5G5 1-1047): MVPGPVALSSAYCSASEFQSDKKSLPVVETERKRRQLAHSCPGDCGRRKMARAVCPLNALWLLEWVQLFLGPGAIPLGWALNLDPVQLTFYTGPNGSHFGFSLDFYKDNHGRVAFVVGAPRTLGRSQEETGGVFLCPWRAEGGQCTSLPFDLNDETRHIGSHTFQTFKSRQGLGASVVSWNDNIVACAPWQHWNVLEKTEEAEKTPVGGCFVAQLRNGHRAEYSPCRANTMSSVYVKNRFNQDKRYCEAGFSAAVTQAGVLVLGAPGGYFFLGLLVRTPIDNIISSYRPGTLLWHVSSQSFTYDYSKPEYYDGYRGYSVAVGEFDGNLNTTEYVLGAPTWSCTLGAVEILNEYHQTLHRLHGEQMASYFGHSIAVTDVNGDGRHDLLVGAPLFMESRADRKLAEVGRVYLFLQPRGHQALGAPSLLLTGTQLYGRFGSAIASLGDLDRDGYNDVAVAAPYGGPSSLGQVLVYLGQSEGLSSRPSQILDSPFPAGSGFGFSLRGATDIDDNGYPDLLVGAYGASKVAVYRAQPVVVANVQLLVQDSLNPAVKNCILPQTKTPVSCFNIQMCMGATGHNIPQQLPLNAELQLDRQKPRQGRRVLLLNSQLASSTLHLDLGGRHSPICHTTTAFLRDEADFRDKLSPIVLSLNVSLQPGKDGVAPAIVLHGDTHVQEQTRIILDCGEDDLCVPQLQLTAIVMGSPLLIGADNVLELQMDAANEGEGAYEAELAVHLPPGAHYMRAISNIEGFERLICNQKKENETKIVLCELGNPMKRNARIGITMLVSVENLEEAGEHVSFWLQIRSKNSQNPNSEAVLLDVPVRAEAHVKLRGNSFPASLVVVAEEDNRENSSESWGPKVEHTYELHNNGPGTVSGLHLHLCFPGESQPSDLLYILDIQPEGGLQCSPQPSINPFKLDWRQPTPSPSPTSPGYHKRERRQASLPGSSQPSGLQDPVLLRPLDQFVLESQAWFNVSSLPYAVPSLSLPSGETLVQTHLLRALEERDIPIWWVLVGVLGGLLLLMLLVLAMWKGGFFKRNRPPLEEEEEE
Sequence of dog platelets (A0A8I3PMU9 1-919): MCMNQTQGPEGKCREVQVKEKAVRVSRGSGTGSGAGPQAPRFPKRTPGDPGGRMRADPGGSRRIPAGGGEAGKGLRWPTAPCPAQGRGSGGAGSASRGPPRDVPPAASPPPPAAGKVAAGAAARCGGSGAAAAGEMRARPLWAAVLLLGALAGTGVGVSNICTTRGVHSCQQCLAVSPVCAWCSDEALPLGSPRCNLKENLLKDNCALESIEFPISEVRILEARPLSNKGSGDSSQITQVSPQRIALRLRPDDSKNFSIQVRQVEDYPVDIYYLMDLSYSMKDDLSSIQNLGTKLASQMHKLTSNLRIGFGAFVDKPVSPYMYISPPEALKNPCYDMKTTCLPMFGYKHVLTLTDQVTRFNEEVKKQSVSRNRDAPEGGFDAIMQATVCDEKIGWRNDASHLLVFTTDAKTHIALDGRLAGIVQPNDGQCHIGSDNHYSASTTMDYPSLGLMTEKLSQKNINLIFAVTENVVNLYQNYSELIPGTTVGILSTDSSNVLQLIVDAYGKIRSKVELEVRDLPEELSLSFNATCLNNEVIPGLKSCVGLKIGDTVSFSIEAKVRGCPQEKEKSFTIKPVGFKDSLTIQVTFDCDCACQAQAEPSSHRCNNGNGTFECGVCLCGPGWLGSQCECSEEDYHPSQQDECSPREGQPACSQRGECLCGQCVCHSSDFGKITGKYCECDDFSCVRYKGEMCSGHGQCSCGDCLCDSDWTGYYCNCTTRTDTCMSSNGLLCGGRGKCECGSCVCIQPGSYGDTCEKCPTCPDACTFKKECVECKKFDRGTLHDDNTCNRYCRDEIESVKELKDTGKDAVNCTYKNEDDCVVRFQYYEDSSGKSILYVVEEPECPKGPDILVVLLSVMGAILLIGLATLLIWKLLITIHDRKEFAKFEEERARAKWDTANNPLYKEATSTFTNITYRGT

COc1cc(C)c(S(=O)(=O)NC(=N)NCCC[C@@H]2NC(=O)[C@@H]3CCCN3C(=O)CNC(=O)[C@H]3CCCN3C(=O)[C@H](CC(=O)OC(C)(C)C)NC(=O)CNC2=O)c(C)c1C [cyclo-(1,6)-Gly-Pro-Arg-Gly-Asp-D-Pro]
ring closure, crude yield ([1]; from H-Asp(OtBu)-dPro-Gly-Pro-Arg(Mtr)-Gly-OH, 18-membered ring, PPA/NMM, 0.4 mM): 42%

COc1cc(C)c(S(=O)(=O)NC(=N)NCCC[C@@H]2NC(=O)[C@@H]3CCCN3C(=O)[C@@H](Cc3ccccc3)NC(=O)[C@H](CC(=O)OC(C)(C)C)NC(=O)CNC(=O)[C@H](CCCNC(=N)NS(=O)(=O)c3c(C)cc(OC)c(C)c3C)NC(=O)[C@@H]3CCCN3C(=O)[C@@H](Cc3ccccc3)NC(=O)[C@H](CC(=O)OC(C)(C)C)NC(=O)CNC2=O)c(C)c1C
ring closure, crude yield ([1]; from H-Asp(OtBu)-dPhe-Pro-Arg(Mtr)-Gly-Asp(OtBu)-dPhe-Pro-Arg(Mtr)-Gly-OH, 30-membered ring, PPA/NMM, 0.4 mM): 100%

COc1cc(C)c(S(=O)(=O)NC(=N)NCCC[C@@H]2NC(=O)CNC(=O)[C@@H]3CCCN3C(=O)[C@H](COCc3ccccc3)NC(=O)[C@H](CC(=O)OC(C)(C)C)NC(=O)CNC2=O)c(C)c1C [cyclo-(1,6)-Gly-Arg-Gly-Asp-Ser-Pro]
ring closure, crude yield ([1]; from H-Asp(OtBu)-Ser(Bzl)-Pro-Gly-Arg(Mtr)-Gly-OH, 18-membered ring, PPA/NMM, 0.4 mM): 88%

N=C(N)NCCC[C@@H]1NC(=O)[C@@H]2CCCN2C(=O)[C@@H](Cc2ccccc2)NC(=O)[C@H](CC(=O)O)NC(=O)CNC(=O)[C@H](CCCNC(=N)N)NC(=O)[C@@H]2CCCN2C(=O)[C@@H](Cc2ccccc2)NC(=O)[C@H](CC(=O)O)NC(=O)CNC1=O [Example 22, cyclo-(1,10)-Pro-Arg-Gly-Asp-D-Phe-Pro-Arg-Gly-Asp-D-Phe] (cyclo(RGD[dF]PRGD[dF]P))
pIC50 [2]: < 3.70

N=C(N)NCCC[C@@H]1NC(=O)CNC(=O)[C@@H]2CCCN2C(=O)[C@H]2CCCN2C(=O)[C@H](CC(=O)O)NC(=O)CNC1=O [Example 24, cyclo-(1,6)-Pro-Gly-Arg-Gly-Asp-D-Pro] (cyclo(RGD[dP]PG))
pIC50 [2]: < 3.70

COc1cc(C)c(S(=O)(=O)NC(=N)NCCC[C@@H]2NC(=O)[C@H](Cc3ccccc3)NC(=O)[C@H](CC(=O)OC(C)(C)C)NC(=O)CNC(=O)[C@H](CCCNC(=N)NS(=O)(=O)c3ccc(C)cc3)N(C)C(=O)[C@H](Cc3ccccc3)NC(=O)[C@H](CC(=O)OC(C)(C)C)NC(=O)CNC2=O)c(C)c1C
ring closure, crude yield ([1]; from H-Asp(OtBu)-Phe-MeArg(Tos)-Gly-Asp(OtBu)-Phe-Arg(Mtr)-Gly-OH, 24-membered ring, PPA/NMM, 0.4 mM): 95%

COc1cc(C)c(S(=O)(=O)NC(=N)NCCC[C@@H]2NC(=O)[C@@H]3CCCN3C(=O)[C@@H](Cc3ccccc3)NC(=O)CNC(=O)[C@H](CC(=O)OC(C)(C)C)NC(=O)CNC2=O)c(C)c1C [cyclo(1,6)-Asp(O-t-Bu)-Gly-D-Phe-Arg(Tos)-Gly]
ring closure, crude yield ([1]; from H-Asp(OtBu)-Gly-dPhe-Pro-Arg(Mtr)-Gly-OH, 18-membered ring, PPA/NMM, 0.5 mM): 84%

H-Gly-Arg(Tos)-Gly-Asp(Bzl)-Ser(Bzl)-Glu-BHA-resin
ring closure, crude yield [1, 3]: 94%

Cc1ccc(S(=O)(=O)NC(=N)NCCC[C@@H]2NC(=O)[C@@H]3CCCN3C(=O)[C@H]3CCCN3C(=O)CNC(=O)[C@H](CC(=O)OC(C)(C)C)NC(=O)CNC2=O)cc1 [cyclo-(1,6)-Pro-Arg(Tos)-Gly-Asp(O-t-Bu)-Gly-D-Pro]
ring closure, crude yield ([1]; from H-Asp(OtBu)-Gly-dPro-Pro-Arg(Tos)-Gly-OH, 18-membered ring, PPA/NMM, 0.57 mM): 63%

COc1cc(C)c(S(=O)(=O)NC(=N)NCCC[C@@H]2NC(=O)[C@H](Cc3ccccc3)NC(=O)[C@H](CC(=O)OC(C)(C)C)NC(=O)CNC(=O)[C@H](CCCNC(=N)NS(=O)(=O)c3c(C)cc(OC)c(C)c3C)NC(=O)[C@H](Cc3ccccc3)NC(=O)[C@H](CC(=O)OC(C)(C)C)NC(=O)CNC2=O)c(C)c1C
ring closure, crude yield ([1]; from H-Asp(OtBu)-Phe-Arg(Mtr)-Gly-Asp(OtBu)-Phe-Arg(Mtr)-Gly-OH, 24-membered ring, PPA/NMM, 0.4 mM): 100%

COc1cc(C)c(S(=O)(=O)NC(=N)NCCC[C@@H]2NC(=O)CNC(=O)[C@@H]3CCCN3C(=O)[C@H]3CCCN3C(=O)[C@H](CC(=O)OC(C)(C)C)NC(=O)CNC2=O)c(C)c1C [cyclo-(1,6)-Pro-Gly-Arg(Mtr)-Gly-Asp(O-t-Bu)-D-Pro]
ring closure, crude yield ([1]; from H-Asp(OtBu)-dPro-Pro-Gly-Arg(Mtr)-Gly-OH, 18-membered ring, PPA/NMM, 0.37 mM): 31%

COc1cc(C)c(S(=O)(=O)NC(=N)NCCC[C@@H]2NC(=O)[C@H](C)NC(=O)[C@@H](COCc3ccccc3)NC(=O)[C@H](CC(=O)OC(C)(C)C)NC(=O)CNC2=O)c(C)c1C [cyclo-(1,5)-Ala-Arg(Mtr)-Gly-Asp(O-t-Bu)-D-Ser(Bzl)]
ring closure, crude yield ([1]; from H-Asp(OtBu)-dSer(Bzl)-Ala-Arg(Mtr)-Gly-OH, 15-membered ring, PPA/NMM, 0.4 mM): 67%

C[C@H]1NC(=O)[C@H](CO)NC(=O)[C@H](CC(=O)O)NC(=O)CNC(=O)[C@H](CCCNC(=N)N)NC1=O [Example 28, cyclo-(1,5)-D-Ala-Arg-Gly-Asp-Ser] (cyclo(RGDS[dA]))
pIC50 [2]: < 3.70

H-Gly-MeArg(Tos)-Gly-Asp(Bzl)-Ser(Bzl)-Glu-BHA-resin
ring closure, crude yield [1, 3]: 100%

Cc1ccc(S(=O)(=O)NC(=N)NCCC[C@@H]2NC(=O)[C@@H](C)NC(=O)[C@H](COCc3ccccc3)NC(=O)[C@H](CC(=O)OCc3ccccc3)NC(=O)CNC2=O)cc1 [cyclo-(1,5)-D-Ala-Arg(Tos)-Gly-Asp(Bzl)-Ser(Bzl)]
ring closure, crude yield ([1]; from H-Asp(Bzl)-Ser(Bzl)-dAla-Arg(Tos)-Gly-OH, 15-membered ring, PPA/NMM, 0.4 mM): 67%

N=C(N)NCCC[C@@H]1NC(=O)CNC(=O)[C@@H]2CCCN2C(=O)[C@H](CO)NC(=O)[C@H](CC(=O)O)NC(=O)CNC1=O [Example 25, cyclo-(1,6)-Gly-Arg-Gly-Asp-Ser-Pro]
pIC50 [2]: < 3.70

— US5643872A, “Cyclic anti-aggregatory peptides” (SmithKline Beecham Corporation, priority 1994, dated 1997)
